# Legend:
# [1] = test system: rats subjected to spinal cord compression; assay: Spinal cord compression model, BBB score; assay type: in vivo, rat; conditions: 12 mg/kg/day subcutaneous for 2 weeks; as of post-operation day 7
# Protocol: FIG. 7: Effect of molecule 43B on locomotor recovery following spinal cord compression in rats. Animal locomotion was evaluated in a blind format during the 1-28 day post-operative period using the BBB score which evaluates the degree of paralysis (higher values correspond to better recovery). Statistical significance: * indicates p<0.001; ** indicates p<0.0001.
# To determine the neuroprotective effects of the molecules tested, a spinal cord compression model is used. This model involves the total paralysis of the animals in the first few days following the operation. This period of paralysis is followed of a phase of approximately three weeks during which the animals partially recover their motor function. The study of this recovery using a simple and precise functional test based on observation of the animals (the BBB score) makes it possible to study the speed and the degree of recovery of the animals, with and without treatment.
# Two groups of rats were subjected to spinal cord compression. Then, daily for 2 weeks, the animals received a subcutaneous injection containing either sesame oil alone (control group, n=20), or sesame oil containing molecule 43B (43B group, n=20; 12 mg/kg/day). The first injection was given 5 minutes after spinal cord compression. Locomotion of the animals, using BBB scores, was evaluated in a blind format on post-operation days 1, 4, 7, 14, 21, and 28. […]
# [2] = MAP4343 in the brain after TBI (CHI, LFP, CCI) by LC-MS/MS; assay type: in vivo, rat; conditions: 6 h after CHI, LFP or CCI, 4 h after single subcutaneous injection
# Protocol: MAP4343 was dissolved in sesame oil and injected sub-cutaneously. Two distinct doses of MAP4343 (10 and 20 mg/kg) were tested in each model. The injection took place 2 h after trauma.
# In order to establish whether TBI modifies the passage of MAP4343 into the brain, MAP4343 was measured by liquid chromatography associated to tandem mass spectrometry (LC-MS/MS) in the brain of animals sacrificed 6 h after CHI, LFP or CCI (4 h after MAP4343 single injection).
# In order to establish whether TBI modifies the passage of 3-methoxy-PREG (MAP434) into the brain, MAP4343 was measured by liquid chromatography coupled to tandem mass spectrometry LC-MS/MS in the brain of animals sacrificed 6 h after CHI, LFP or CCI (4 h. after MAP4343 injection).
# [3] = test system: spinophilin; assay: Western blot of spinophilin in cortex and hippocampus after CCI; assay type: in vivo, rat; conditions: day 35, 10 mg/kg or 20 mg/kg, first injection 2 h post-trauma, injured cortex and hippocampus and contralaterally
# Protocol: (§1) CCI was performed with an electromagnetic impact device as described (MyNeurolab, St. Louis, Mo.; Brody et al, 2007). Anesthesized rats were subjected to a single right lateral CCI, with the following parameters impact centered 4.0 mm anterior to lambda and 4.5 mm […] of midline, within the craniotomy of the animal. The impact was set at a velocity of 4 m/s with a sustained depression of 200 ms, using a 5.0 mm tip.
# (§2) Samples were analyzed by Western-blot at day 35 post-trauma (D35) to evaluate the effects of MAP4343 on: MAP2 (the target of MAP4343 and a modulator of microtubule function), the post-synaptic markers PSD95 and spinophilin, the pre-synaptic marker synaptophysin, and the axonal growth/integrity marker […].
# (§3) Western blot was performed on cortex and hippocampus of TBI-injured animals receiving the first injection of MAP4343 (at 10 mg/kg or 20 mg/kg) or vehicle (sesame oil) 2 h after injury.
# (§4) The expression level of various neuronal brain markers of plasticity was measured at day 35 post-trauma by western-blots in the cortex and hippocampus of left uninjured and right injured cerebral hemispheres of CCI traumatized animals receiving either vehicle (sesame oil, CCI-D0) or 3-methoxy-PREG (MAP4343) at 10 mg/kg (CCI-D1) or 20 mg/kg (CCI-D2), with first MAP4343 injection 2 h post-trauma.
# [4] = biological target: T1, microtubule-associated MAP2 (Rattus norvegicus, UniProt P15146); assay: Immunolabeling of microtubule-associated MAP2 in PC12 cells; assay type: cell-based; conditions: 20 μM, NGF 10 ng/ml
# T1 construct: endogenous in cells; host or cells: PC12 cells
# Source text: They were fixed and exposed to anti-MAP2 antibodies that reveal microtubule-associated MAP2 esclusively.
# To rest the effect of selected molecules on neuritic growth, we first used the PC12 line, which has long been employed in neurobiological research. In the presence of NOF (nerve growth factor), the cells of this line, which arise from a rat pheochromocytoma, form neuritic extensions containing MAP-associated microtubules. The growth of these elongations is stimulated by the addition of PREG. […] The screening of other natural or synthetic steroids made it possible to select several molecules presenting greater effects than that of PRIG (FIG. 2). In particular, the addition of molecule 43B, which can be synthesized easily from PRIG, caused a spectacular increase (reaching as high as 500%) in the length of neurites formed in the presence of NOF (FIG. 3). This neurite growth accompanies the stimulation by 43-3 of the association of MAP2 to the microtubules (FIG. 4).
# [5] = test system: GAP43; assay: Western blot of GAP43 in cortex and hippocampus after CCI; assay type: in vivo, rat; conditions: day 35, injured cortex (20 mg/kg only), hippocampus and non-injured cortex (both doses)
# Protocol: as §1, §2, §3, §4
# [6] = test system: Sprague Dawley rats; assay: Novel object recognition test, naive animals, 4 h ITI; assay type: in vivo, rat; conditions: 10 mg/kg subcutaneously immediately after T1
# Source text: Cognitive dysfunction, including impaired recognition memory, are common features in depressed patients (Egeland et al., Scand. J. Psychol. 2005). The present experiment explored the ability of 3-methoxy-PREG (43B) administration to increase recognition memory retention in naive animals and to recover recognition memory deficits in animals submitted to the social isolation protocol. Rearing rats in isolation from the time of weaning and throughout adulthood can induce a series of hippocampal structural and molecular deficits paralled by behavioural alterations resembling a depressive-like state (Weiss and Feldon, Psychopharmacology 2001; Bianchi et al., EJN 2006). Recognition memory was assessed using the NOR test which is a two-trial test of recognition memory based on the spontaneous preference of rats for novelty (Ennaceur and Delacour, Behav. Brain. Res. 1988; Bianchi et al. EJN. 2006). Briefly, rats are placed in the open field arena for a 3 min period of habituation and then re-placed in their “home” cage for 1 min. The animals are then re-placed in the arena for the familiarization trial (T1) and allowed to explore two identical objects for 5 min. […] The ability of the animals to discriminate between the novel and the familiar object is then expressed as D2-INDEX: [novel object (sec)−familiar object (sec)]/[novel object (sec)+familiar object (sec)] […]
# T1 sequence (P15146 whole entry): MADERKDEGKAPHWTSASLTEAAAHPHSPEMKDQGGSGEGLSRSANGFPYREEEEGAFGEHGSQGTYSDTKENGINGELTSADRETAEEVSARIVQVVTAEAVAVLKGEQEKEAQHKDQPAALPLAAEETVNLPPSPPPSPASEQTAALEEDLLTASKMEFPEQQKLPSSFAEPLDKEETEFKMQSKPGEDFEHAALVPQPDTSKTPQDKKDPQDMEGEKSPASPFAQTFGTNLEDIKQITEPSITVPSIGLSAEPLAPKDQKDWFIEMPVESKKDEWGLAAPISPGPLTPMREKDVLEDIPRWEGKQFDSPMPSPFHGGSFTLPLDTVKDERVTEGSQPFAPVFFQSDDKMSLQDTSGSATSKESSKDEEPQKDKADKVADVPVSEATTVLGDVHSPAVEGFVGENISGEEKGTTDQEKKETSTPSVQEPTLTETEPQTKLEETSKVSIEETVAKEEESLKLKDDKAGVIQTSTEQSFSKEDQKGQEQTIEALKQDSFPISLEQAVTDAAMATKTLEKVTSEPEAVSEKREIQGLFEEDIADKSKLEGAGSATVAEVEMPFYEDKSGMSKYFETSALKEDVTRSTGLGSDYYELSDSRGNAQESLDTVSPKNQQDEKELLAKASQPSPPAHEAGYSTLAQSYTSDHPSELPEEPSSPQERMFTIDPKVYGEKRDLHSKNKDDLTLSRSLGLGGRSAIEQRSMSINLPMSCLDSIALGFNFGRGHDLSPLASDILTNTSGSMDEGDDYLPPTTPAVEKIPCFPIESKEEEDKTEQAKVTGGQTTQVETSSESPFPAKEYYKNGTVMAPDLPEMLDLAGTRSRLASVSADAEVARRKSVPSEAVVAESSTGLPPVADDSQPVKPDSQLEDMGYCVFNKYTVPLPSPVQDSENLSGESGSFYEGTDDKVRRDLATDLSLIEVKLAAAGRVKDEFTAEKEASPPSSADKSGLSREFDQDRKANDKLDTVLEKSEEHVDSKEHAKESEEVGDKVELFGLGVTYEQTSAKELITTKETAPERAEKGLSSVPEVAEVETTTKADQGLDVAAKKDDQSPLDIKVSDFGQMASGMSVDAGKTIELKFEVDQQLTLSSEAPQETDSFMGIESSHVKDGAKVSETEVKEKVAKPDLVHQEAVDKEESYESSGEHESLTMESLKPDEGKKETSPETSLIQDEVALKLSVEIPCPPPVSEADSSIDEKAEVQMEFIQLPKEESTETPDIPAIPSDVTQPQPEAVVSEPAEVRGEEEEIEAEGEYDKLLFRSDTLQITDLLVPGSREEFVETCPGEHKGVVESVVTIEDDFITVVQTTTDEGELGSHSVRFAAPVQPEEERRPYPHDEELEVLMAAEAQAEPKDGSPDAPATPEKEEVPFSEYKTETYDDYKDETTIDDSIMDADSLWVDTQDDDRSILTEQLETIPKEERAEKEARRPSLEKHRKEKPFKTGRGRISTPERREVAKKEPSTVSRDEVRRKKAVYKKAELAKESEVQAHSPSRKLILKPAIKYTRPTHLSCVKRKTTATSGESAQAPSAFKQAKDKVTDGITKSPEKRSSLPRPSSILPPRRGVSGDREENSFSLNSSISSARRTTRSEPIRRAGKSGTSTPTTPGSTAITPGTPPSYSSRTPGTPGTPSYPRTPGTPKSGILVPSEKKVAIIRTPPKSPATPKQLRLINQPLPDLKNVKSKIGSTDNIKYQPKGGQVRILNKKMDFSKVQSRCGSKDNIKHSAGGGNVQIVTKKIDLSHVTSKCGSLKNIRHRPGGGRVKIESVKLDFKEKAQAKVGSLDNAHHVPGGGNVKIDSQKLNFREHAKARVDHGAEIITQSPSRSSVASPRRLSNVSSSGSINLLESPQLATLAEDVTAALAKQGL
smiles,measurement,setting,value
"CO[C@H]1CC[C@@]2(C)C(=CC[C@H]3[C@@H]4CC[C@H](C(C)=O)[C@@]4(C)CC[C@@H]32)C1 [3-methoxy-PREG, 3β-methoxy-pregna-5-ene-20-one]","locomotion, BBB score",[1],quite significantly higher than the control animals
same,concentrations of MAP4343 that reach the brain,[2],concentrations of MAP4343 of significant therapeutic interest reach the brain
same,spinophilin expression,[3],increase in spinophilin expression
same,association of MAP2 to the microtubules,[4],stimulation
same,GAP-43 expression,[5],increased GAP-43 expression
same,discrimination between novel and familiar object,[6],discriminated between the novel and the familiar object showing increased memory retention

# From patent publication US9339508B2, “Use of 3-methoxy-pregnenolone for the preparation of a drug for treating a traumatic brain injury” (MAPREG, priority 2003, dated 2016)
